Entries after “also recorded” stand apart in the source; their conditions may differ. One block for each molecule: values may come before it.
How the values were obtained:
[1] = system: NF-κB DNA binding activity in HeLa cells; test: EMSA of NF-κB DNA binding, nuclear extracts of TNF-α-treated HeLa cells; format: cell-based, human; conditions: increasing concentrations 10-50 μM; TNF-α-treated HeLa cells
Experimental: (§1) To prepare nuclear and cytoplasmic protein extracts, HeLa, MEF, and RAW 264.7 cells were lysed in buffer containing 4.3 mM Na2HPO4, 1.47 mM KH2PO4 pH 7.4, 137 mM NaCl, 2.7 mM KCl, 1 mM DTT, 0.05% (v/v) NP-40, and 1×protease inhibitor cocktail for 10 minutes on ice and spun at 3,000 rpm at 4° C. for 10 minutes. The supernatant containing the cytoplasmic fraction was quantified by Bio-Rad protein assay to determine the total amount of protein. Pellets were resuspended in nuclear extraction buffer (25 mM Tris-HCl pH 7.5, 420 mM NaCl, 10% glycerol, 0.2 mM EDTA, 1 mM DTT, 0.5 mM PMSF, 1×protease inhibitor cocktail) once and then subjected to three lysis cycles (freeze at −80° C. and thaw at 37° C.). Finally, samples were centrifuged at 13,000 rpm at 4° C. for 20 minutes, and supernatants containing the soluble nuclear fraction were measured by the Bio-Rad protein assay to determine the total amount of protein. Nuclear and cytoplasmic extracts were aliquoted and kept at −80° C.
(§2) HeLa, MEF, RAW 264.7 cells were cultured in Dulbecco's MEM containing 10% fetal bovine […] supplemented with penicillin and streptomycin, at 37° C. in a humidity incubator with 5% CO2. RAW 264.7 cells were seeded and allowed to adhere for 24 hours then treated with NEMO^ActPep or NEMO^ActPep 6G at different concentrations 60 min before the LPS challenge (100 ng/ml). After 2 hours, nuclear and cytoplasmic extracts were collected. HeLa and MEF cells seeded for 24 hours then treated with NEMO^ActPep or NEMO^ActPep 6G at different concentrations 60 min before the TNF-α challenge (10 ng/ml) for 15 minutes and then nuclear and cytoplasmic extracts were collected. MEF cells were treated with NEMO^ActPep or NEMO^ActPep 6G at different concentrations 1 hour before the LTβR challenge (300 ng/ml). After 24 hours whole cell extracts were collected and aliquoted and kept at −80° C. for further experiments.
(§3) Electrophoretic mobility shift assay (EMSA) was performed using recombinant full length NF-κB ReIA homodimer as a positive control as previously described (45). […] The amount of protein in lysates was quantified by Bio-Rad protein assay. EMSA analysis with quantitative densitometry and signal intensity was quantitated using ImageJ software. […]
It is intrigued by the ability of such a small segment (residues 384-389) of human NEMO to mediate interaction with and promote activation loop phosphorylation of IKK2. […] NF-κB activity was measured by EMSA using nuclear extracts and radiolabeled KB DNA from the immunoglobulin kappa light chain gene (Ig-κB) as the probe (FIG. 5A).

[2] = system: MAP kinases JNK, Erk2 and p38; test: Western blot of MAP kinase phosphorylation in TNF-α-treated HeLa cells; format: cell-based, human
Experimental: (§4) Equivalent amounts of protein from cell extracts was separated by SDS-PAGE and transferred to polyvinylidene fluoride (PVDF) membranes (Millipore, Bedford, MA, USA). The membrane was blocked with 5% bovine serum albumin (BSA) for 1 hour at room temperature and then the membrane was incubated with the primary antibodies overnight at 4° C. Antibodies for IKK2, His, HA, Myc, GST, Ubiquitin, IκBα, phospho-IKK2, p65/ReIA, p84, γ-Actin, p100/52, phospho-ERK, phospho-JNK, phospho-p38, ERK, JNK, and p38 were used for detecting multiple specific protein targets. After binding of an appropriate secondary antibody coupled to horseradish peroxidase, the immunoreactive bands were visualized by enhanced chemiluminescence substrate.
It was also tested if TAT-NEMO^ActPep has any effect on non-canonical NF-κB signaling. This alternative NF-κB signaling pathway is activated in response to stimulation of specific cytokine receptors and leads to activation of IKK1 and consequent processing of the p100 precursor to the mature NF-κB subunit p52 (30,31). […] To further investigate the possible involvement of TAT-NEMO^ActPep in other signaling pathways, the effect of the peptide on MAPK activation was tested by monitoring the phosphorylation status of JNK, Erk2, and p38 upon TNF-α treatment of HeLa cells. […]

[3] = system: non-canonical NF-κB signaling (IKK1, p100 processing); test: Western blot of p100 processing after LTβR engagement (non-canonical NF-κB signaling); format: cell-based; conditions: increasing peptide concentrations; HeLa cells per FIG. 5C legend
Experimental: as §2
Equivalent amounts of protein from cell extracts was separated by SDS-PAGE and transferred to polyvinylidene fluoride (PVDF) membranes (Millipore, Bedford, MA, USA). The membrane was blocked with 5% bovine serum albumin (BSA) for 1 hour at room temperature and then the membrane was incubated with the primary antibodies overnight at 4° C. […]

[4] = system: canonical NF-κB signaling through IKK2 in RAW 264.7 murine macrophage cells; test: Western blot of canonical NF-κB signaling in LPS-treated RAW 264.7 cells; format: cell-based; conditions: 100 ng/mL LPS for 2 hours
Experimental: as §1, §2, §4
It was then tested if the observed effect is universal across species and cell types. The effect of TAT-NEMO^ActPep was tested in RAW 264.7 murine macrophage cells treated with 100 ng/mL purified bacterial lipopolysaccharide (LPS) for 2 hours. Again, NF-κB DNA binding and ReIA subunit nuclear localization were both inhibited as were phosphorylation of the IKK2 activation loop and degradation of IκBα. […] The effect of TAT-NEMO^ActPep on NF-κB DNA binding was also analyzed in MEF cells by EMSA.

[5] = system: canonical NF-κB signaling through IKK2 in HeLa cells; test: Western blot of canonical NF-κB signaling in TNF-α-treated HeLa cells; format: cell-based, human; conditions: increasing peptide concentrations
Experimental: as §1, §2, §4
The inhibitory effects of TAT-NEMO^ActPep were further verified on canonical NF-κB signaling in HeLa cells by assessing IKK2 activation loop phosphorylation, IκBα degradation, and NF-κB ReIA/p65 subunit subcellular localization. Consistent with the observations of decreased nuclear NF-κB DNA binding activity by EMSA, treatment with TAT-NEMO^ActPep blocked IKK2 phosphorylation, IκBα proteolysis, and nuclear translocation of ReIA (FIG. 5B).

[6] = system: NF-κB DNA binding in RAW 264.7 murine macrophage cells; test: EMSA of NF-κB DNA binding, nuclear lysates of LPS-treated RAW 264.7 cells; format: cell-based; conditions: RAW 264.7 cells, 100 ng/mL LPS for 2 hours
Experimental: as §1
HeLa, MEF, RAW 264.7 cells were cultured in Dulbecco's MEM containing 10% fetal bovine […] supplemented with penicillin and streptomycin, at 37° C. in a humidity incubator with 5% CO2. RAW 264.7 cells were seeded and allowed to adhere for 24 hours then treated with NEMO^ActPep or NEMO^ActPep 6G at different concentrations 60 min before the LPS challenge (100 ng/ml). After 2 hours, nuclear and cytoplasmic extracts were collected. […]
as §3
It was then tested if the observed effect is universal across species and cell types. […] The effect of TAT-NEMO^ActPep on NF-κB DNA binding was also analyzed in MEF cells by EMSA.

[7] = biological target: T1, full length human IKK2 (recombinant, N-terminal hexahistidine-TEV tag) (human, UniProt O14920 1-756); test: GST pull-down with purified proteins, western blot
T1 construct: mature; Produced in Sf9 insect cells with baculovirus; also called IKKβ; full length IKK2; not shown: TEV cleavage site and vector residues of pFastBacHTb
T1 sequence: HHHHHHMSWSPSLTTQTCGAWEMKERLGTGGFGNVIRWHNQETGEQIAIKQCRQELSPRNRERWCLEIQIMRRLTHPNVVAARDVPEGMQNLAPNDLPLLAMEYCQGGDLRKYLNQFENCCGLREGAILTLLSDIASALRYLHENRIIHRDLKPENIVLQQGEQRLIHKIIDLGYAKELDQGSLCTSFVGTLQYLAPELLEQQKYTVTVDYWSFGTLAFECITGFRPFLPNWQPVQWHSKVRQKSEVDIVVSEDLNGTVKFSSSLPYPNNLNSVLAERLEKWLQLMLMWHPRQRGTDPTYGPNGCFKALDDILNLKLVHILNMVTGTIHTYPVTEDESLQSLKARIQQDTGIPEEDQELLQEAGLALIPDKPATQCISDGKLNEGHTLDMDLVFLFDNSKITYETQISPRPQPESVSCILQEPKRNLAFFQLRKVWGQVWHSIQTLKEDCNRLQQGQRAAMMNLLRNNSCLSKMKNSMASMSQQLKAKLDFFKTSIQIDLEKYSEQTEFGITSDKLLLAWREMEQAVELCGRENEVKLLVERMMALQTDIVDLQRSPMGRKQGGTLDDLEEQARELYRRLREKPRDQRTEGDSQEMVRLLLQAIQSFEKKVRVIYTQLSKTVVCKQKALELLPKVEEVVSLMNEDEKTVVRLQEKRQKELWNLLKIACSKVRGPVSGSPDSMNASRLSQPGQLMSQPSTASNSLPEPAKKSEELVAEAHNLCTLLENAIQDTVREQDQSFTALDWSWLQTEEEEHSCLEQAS

[8] = biological target: T2, IKK2 (purified recombinant; construct not stated for the experiment of FIG. 2D) (human, UniProt O14920 1-756, limits assumed); test: GST pull-down with purified proteins in the presence of Ub4, western blot
T2 sequence (looked up): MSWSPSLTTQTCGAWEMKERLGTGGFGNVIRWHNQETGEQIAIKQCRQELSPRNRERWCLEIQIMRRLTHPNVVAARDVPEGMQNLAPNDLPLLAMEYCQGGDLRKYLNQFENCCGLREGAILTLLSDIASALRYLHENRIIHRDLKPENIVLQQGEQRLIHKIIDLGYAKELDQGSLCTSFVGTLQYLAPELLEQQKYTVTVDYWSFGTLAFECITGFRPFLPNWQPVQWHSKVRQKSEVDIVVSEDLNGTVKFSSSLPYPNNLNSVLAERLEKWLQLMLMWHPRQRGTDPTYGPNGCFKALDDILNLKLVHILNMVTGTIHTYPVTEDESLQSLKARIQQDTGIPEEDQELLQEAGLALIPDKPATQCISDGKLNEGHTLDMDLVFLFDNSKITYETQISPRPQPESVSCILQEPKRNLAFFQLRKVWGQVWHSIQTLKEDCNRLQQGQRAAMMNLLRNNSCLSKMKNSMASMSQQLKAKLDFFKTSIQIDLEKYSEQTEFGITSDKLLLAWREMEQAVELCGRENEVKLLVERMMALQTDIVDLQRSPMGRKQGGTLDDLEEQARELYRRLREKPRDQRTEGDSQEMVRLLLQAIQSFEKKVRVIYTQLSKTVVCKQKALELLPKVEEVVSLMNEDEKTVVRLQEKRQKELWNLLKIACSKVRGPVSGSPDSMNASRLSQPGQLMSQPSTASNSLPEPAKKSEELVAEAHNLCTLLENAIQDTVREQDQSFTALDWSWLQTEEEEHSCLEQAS

Molecule: TAT-NEMO^ActPep 6G: control variant of TAT-NEMO^ActPep with NEMO residues 384-389 mutated to glycine (SEQ ID NO 3) (YGRKKRRQRRRGGLSSPLALPSGGGGGGEE) [reference compound]
NF-κB-dependent shift of radiolabeled probe (EMSA) [1]: reduction was not observed; also recorded: does not | phosphorylation of JNK, Erk2 and p38 MAP kinases (western blot) [2]: Neither TAT-NEMO^ActPep nor TAT-NEMO^ActPep 6G influenced; also recorded: no effect | processing of p100 in response to LTβR engagement (western blot) [3]: not observed any effect; also recorded: no change in the extent of p100 processing | ReIA subunit nuclear localization (western blot) [4]: did not show such effects | degradation of IκBα (western blot) [4]: did not show such effects | phosphorylation of the IKK2 activation loop (western blot) [4]: did not show such effects | IKK2 activation loop phosphorylation (western blot) [5]: showed no such effects | IκBα degradation / proteolysis (western blot) [5]: showed no such effects | NF-κB ReIA/p65 subunit nuclear localization (western blot) [5]: showed no such effects | NF-κB DNA binding [6]: did not show such effects

B2: GST-NEMO^241-419 6G (other, human, UniProt Q9Y6K9 241-419, looked up)
chain: YDNHIKSSVVGSERKRGMQLEDLKQQLQQAEEALVAKQEVIDKLKEEAEQHKIVMETVPVLKAQADIYKADFQAERQAREKLAEKKELLQEQLEQLQREYSKLKASCQESARIEDMRKRHVEVSQAPLPPAPAYLSSPLALPSGGGGGGEEPPDFCCPKCQYQAPDMDTLQIHVMECIE
notes: not shown: glutathione-S-transferase (GST) tag of vector pGEX4T-2, N-terminal
binding result [8]: no binding

Continued, values first:

binding result [7]: no binding
B1: GST-NEMO^111-419 (other, human, UniProt Q9Y6K9 111-419, looked up)
chain: KLDLKRQKEQALREVEHLKRCQQQMAEDKASVKAQVTSLLGELQESQSRLEAATKECQALEGRARAASEQARQLESEREALQQQHSVQVDQLRMQGQSVEAALRMERQAASEEKRKLAQLQVAYHQLFQEYDNHIKSSVVGSERKRGMQLEDLKQQLQQAEEALVAKQEVIDKLKEEAEQHKIVMETVPVLKAQADIYKADFQAERQAREKLAEKKELLQEQLEQLQREYSKLKASCQESARIEDMRKRHVEVSQAPLPPAPAYLSSPLALPSQRRSPPEEPPDFCCPKCQYQAPDMDTLQIHVMECIE
notes: as for B2

binding result [8]: no binding
B3: GST-NEMO^241-419 3G (other, human, UniProt Q9Y6K9 241-419, looked up)
chain: YDNHIKSSVVGSERKRGMQLEDLKQQLQQAEEALVAKQEVIDKLKEEAEQHKIVMETVPVLKAQADIYKADFQAERQAREKLAEKKELLQEQLEQLQREYSKLKASCQESARIEDMRKRHVEVSQAPLPPAPAYLSSPLALPSGGGSPPEEPPDFCCPKCQYQAPDMDTLQIHVMECIE
notes: as for B2

Reference: US20240166703A1, “ANTI-INFLAMMATORY PEPTIDE AND METHOD OF USE THEREOF” (The Regents of the University of California, priority 2021, published 2024)
